Where “and” joins values, the source holds several entries; their conditions need not be identical. Equal values may be shown once.

In assay [1] the target is T1, Genome polyprotein (dengue virus type 2, UniProt P29990). The assay is classed as functional, Thailand/16681/1984.
For assay [2], the target named is T1, Genome polyprotein. The assay is classed as functional, Thailand/16681/1984. This is another data set of the same source.

T1 sequence (P29990 1346-1475 limits assumed): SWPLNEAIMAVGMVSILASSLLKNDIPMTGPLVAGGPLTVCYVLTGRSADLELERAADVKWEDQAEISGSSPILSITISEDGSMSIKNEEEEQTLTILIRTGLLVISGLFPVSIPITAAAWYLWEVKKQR
T1 sequence (P29990 1476-2093 limits assumed): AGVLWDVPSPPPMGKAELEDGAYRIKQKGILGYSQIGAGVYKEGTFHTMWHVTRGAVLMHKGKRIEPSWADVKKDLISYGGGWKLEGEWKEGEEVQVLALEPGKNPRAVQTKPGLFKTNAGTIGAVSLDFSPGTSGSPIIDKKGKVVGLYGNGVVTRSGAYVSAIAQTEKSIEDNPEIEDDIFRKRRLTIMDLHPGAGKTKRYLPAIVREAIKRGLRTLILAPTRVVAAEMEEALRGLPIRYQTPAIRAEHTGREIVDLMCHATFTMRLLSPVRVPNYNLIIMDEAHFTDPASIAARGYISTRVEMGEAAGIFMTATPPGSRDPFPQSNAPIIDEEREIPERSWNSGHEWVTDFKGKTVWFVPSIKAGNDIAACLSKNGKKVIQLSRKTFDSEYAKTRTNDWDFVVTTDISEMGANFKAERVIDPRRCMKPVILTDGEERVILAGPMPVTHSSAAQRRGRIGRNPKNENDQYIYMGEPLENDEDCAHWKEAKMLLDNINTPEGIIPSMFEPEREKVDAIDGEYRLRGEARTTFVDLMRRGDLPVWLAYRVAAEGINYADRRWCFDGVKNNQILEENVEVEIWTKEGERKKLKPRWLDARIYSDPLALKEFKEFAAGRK

Turning to `O=C(Nc1cc(Cl)cc(C(=O)Nc2cccc3c2OC[C@H](C(=O)O)C3)c1)OCc1ccccc1`, the IC50 in assay [1] is 50.4 µM; in assay [2] it was 19.1 µM.

For `Cn1c(C2CC2)cc(C(=O)Nc2cc(-c3cccnc3)ccn2)c1C1CC1`, the results for the IC50 in assay [1] and in assay [2] were over 99.5 µM and over 100 µM, respectively.

Turning to `Cc1c(C(=O)Nc2cccc(C3CCOCC3)c2)cc(C2CC2)n1C`, the figures for the IC50 in assay [1] and in assay [2] were over 99.5 µM and over 100 µM, respectively.

With `O=C(Nc1cc(Cl)cc(C(=O)Nc2cccc(-c3nnn[nH]3)c2)c1)OCc1ccccc1`, the IC50 is 13.6 µM in assay [1]; 11.1 µM and 11 µM in assay [2].

With `O=C(Nc1ccc2c(c1)OCO2)c1cc(Cl)cc2[nH]ncc12`, the IC50 was over 99.5 µM in assay [1] and over 100 µM in assay [2].

Regarding `O=C(Nc1cc(Cl)cc(C(=O)Nc2cccc([C@H]3CCCCN3)c2)c1)OCc1ccccc1`, the values for the IC50 in assay [1] and in assay [2] were over 99.5 µM and over 100 µM, respectively.

As for `CCOC(=O)Nc1cc(Cl)cc(C(=O)Nc2cccc(CN)c2)c1`, the figures for the IC50 in assay [1] and in assay [2] were over 99.5 µM and over 100 µM, respectively.

Turning to `O=C(Nc1ccc2c(c1)CNC2)c1cc(Cl)cc(N2CCCC2)c1`, the IC50 is over 99.5 µM in assay [1] and over 100 µM in assay [2].

For the compound `Cc1c(C(=O)Nc2cc(C(=O)N(C)C)ccn2)cc(C2CC2)n1C`, the IC50 is over 99.5 µM in assay [1] and over 100 µM in assay [2].

As to `CCc1ccc([C@@H](CC(=O)Nc2cccc(CN)c2)NC(=O)OCc2ccccc2)cc1Br`, the IC50 in assay [1] is 16.4 µM and 22.3 µM; in assay [2], 85.1 µM.

As to `CN1CCC[C@H](c2nc3c(C(=O)Nc4ccc5c(c4)CNC5)cc(F)cc3[nH]2)C1=O`, the results for the IC50 in assay [1] and in assay [2] were over 99.5 µM and over 100 µM, respectively.

Consider `Cc1c(C(=O)Nc2cc(C3CCOCC3)ccc2F)cc(C2CC2)n1C`, for which the figures for the IC50 in assay [1] and in assay [2] were over 99.5 µM and over 100 µM, respectively.

`CC[C@H]1CN(C(=O)Nc2ccc3c(c2)CNC3)C[C@@H]1c1ccc(OC)cc1`: the IC50 was over 99.5 µM in assay [1] and over 100 µM in assay [2].

In the case of `O=C1Cc2c(cccc2C(=O)Nc2ccc3c(c2)[C@H](O)CCO3)N1`, the IC50 in assay [1] is over 99.5 µM; in assay [2], over 100 µM.

For the compound `O=C(Nc1ccc2c(c1)CNC2)N1CC(F)(F)CC2(CCC2)C1`, the IC50 in assay [1] was over 99.5 µM; in assay [2] it was over 100 µM.

`O=C1OCc2ccc(NC(=O)c3cc(Cl)cc4[nH]ncc34)cc21`: the IC50 was over 99.5 µM in assay [1] and over 100 µM in assay [2].

With `O=C(Nc1cc(Cl)cc(-c2ccc(C3(C(=O)O)CCNCC3)cc2)c1)OCc1ccccc1`, the IC50 in assay [1] is over 99.5 µM; in assay [2], over 100 µM.

In the case of `CNC(=O)[C@H](Nc1cncc(C(=O)O)c1)c1cc(Cl)cc(C2CC2)c1`, the figures for the IC50 in assay [1] and in assay [2] were over 99.5 µM and over 100 µM, respectively.

Regarding `O=C(Nc1cc(Cl)cc(-c2cn(C3CCCC3)nc2C(=O)O)c1)OCc1ccccc1`, the IC50 in assay [1] is 34.3 µM; in assay [2], 42.7 µM and 31.7 µM.

Turning to `O=C(Nc1ccc2c(c1)CNC2)c1cc(F)cc2nn(-c3ccccn3)nc12`, the IC50 is 4.99 µM and 4.27 µM in assay [1]; 4.11 µM and 3.88 µM in assay [2].

As for `Cc1c(C(=O)Nc2cccc(CN)c2)cc(C(C)C)n1C`, the IC50 in assay [1] was over 99.5 µM; in assay [2] it was over 100 µM.

Turning to `Cc1c(C(=O)Nc2cccc(-c3ccc(O)nc3)c2)cc(C2CC2)n1C`, the IC50 in assay [1] is over 99.5 µM; in assay [2] it was over 100 µM.

As for `COc1ccc(Cl)cc1[C@H](Nc1ccc2c(c1)CNC2)C(=O)NCC(F)F`, the values for the IC50 in assay [1] and in assay [2] were over 99.5 µM and over 100 µM, respectively.

Consider `CC(C)O[C@]1(C)C(=O)Nc2cc(F)cc(C(=O)Nc3ccc4c(c3)CNC4)c21`, for which the half-inhibitory concentration (IC50) is over 99.5 µM in assay [1] and over 100 µM in assay [2].

For `O=C(Nc1cc2c(cc1Br)CNC2)c1cc(F)cc2[nH]ncc12`, the IC50 in assay [1] was determined as 67 µM; in assay [2], 58 µM.

Regarding `CCOc1cccc(-c2ccc(S(=O)(=O)Nc3cc4c(cc3C(=O)O)CCC4)cc2)c1`, the IC50 in assay [1] worked out at 8.67 µM; in assay [2], 11.5 µM.

Consider `O=C(Nc1cnc2c(c1)CNCC2)c1cc(Cl)cc2[nH]ncc12`, for which the values for the IC50 in assay [1] and in assay [2] were over 99.5 µM and over 100 µM, respectively.

In the case of `O=C(Nc1cc(Cl)cc(C(=O)Nc2ccc3c(c2)CCNC3)c1)OCc1ccccc1`, the IC50 in assay [1] is 50 µM and 60.1 µM; in assay [2], over 100 µM.

Turning to `N#Cc1cc(Cl)cc(C(=O)Nc2ccc3c(c2)CNC3)c1`, the figures for the IC50 in assay [1] and in assay [2] were over 99.5 µM and over 100 µM, respectively.

With `CNC(=O)c1cc(CN)cc([C@@H]2C[C@H]2c2cc(Cl)cc(NC(=O)OCc3ccccc3)c2)c1`, the IC50 was 29.6 µM in assay [1] and over 100 µM in assay [2].

With `OC[C@H](Cc1cccnc1)NCc1c[nH]c2ccccc12`, the IC50 in assay [1] is over 99.5 µM; in assay [2], over 100 µM.

On to `O=C1Cc2c(cccc2C(=O)Nc2ccn(C[C@H]3CCOC3)n2)N1`, for which the IC50 in assay [1] was over 99.5 µM; in assay [2], over 100 µM.

As for `COC(=O)c1cc2c(cc1NC(=O)c1cc(F)cc3[nH]ncc13)CNC2`, the IC50 was over 99.5 µM in assay [1] and over 100 µM in assay [2].

In the case of `O=S(=O)(Nc1cccc(-c2nnn[nH]2)c1)c1cc(Cl)cc(-c2ccccc2)c1`, the IC50 in assay [1] is 35.8 µM; in assay [2], 16.4 µM and 28.4 µM.

`CCn1c(=O)c(N2CC[C@H](CO)C2)nc2cc(C(N)=O)ccc21`: the values for the IC50 in assay [1] and in assay [2] were over 99.5 µM and over 100 µM, respectively.

Take `O=C1CCc2c(cc(Cl)cc2-c2ccc3[nH]c(C(=O)O)cc3c2)N1`: the IC50 in assay [1] was over 99.5 µM; in assay [2], over 100 µM.

As to `Cc1c(C(=O)Nc2cc(C(N)=O)ccn2)cc(C2CC2)n1C`, the results for the IC50 in assay [1] and in assay [2] were over 99.5 µM and over 100 µM, respectively.

On to `NC1(c2cccc(NS(=O)(=O)c3ccc(Oc4ccccc4Cl)cc3)c2)CCOCC1`, for which the IC50 in assay [1] was over 99.5 µM; in assay [2], over 100 µM.

For the compound `O=C(Nc1ccc2c(c1)CNC2)c1cc(C(F)(F)F)cc2[nH]ccc12`, the IC50 was over 99.5 µM in assay [1] and over 100 µM in assay [2].

`CN(C)CCNC(=O)[C@H](Nc1cccc(-c2nn[nH]n2)c1)c1cc(Cl)cc(NC(=O)OCc2ccccc2)c1`: the IC50 is 97.3 µM in assay [1]; 47.2 µM and 67.4 µM and > 100 µM in assay [2].

As for `N#Cc1ccc(N2CCN(Cc3c[nH]c4ccccc34)CC2)cc1`, the IC50 is over 99.5 µM in assay [1] and over 100 µM in assay [2].

Take `CCc1cc(C(=O)Nc2cccc(-n3nn[nH]c3=O)c2)sc1-c1ccc(Cl)cc1`: the IC50 in assay [1] was 11.3 µM and 12.9 µM; in assay [2], 10.5 µM and 12.2 µM.

`CC1(NC(=O)c2cccc3c2CC(=O)N3)CCOCC1`: the values for the IC50 in assay [1] and in assay [2] were over 99.5 µM and over 100 µM, respectively.

`O=C(Nc1cc(Cl)cc(C(=O)Nc2ccc3c(c2)C(=O)NC3)c1)OCc1ccccc1`: the IC50 in assay [1] is over 99.5 µM; in assay [2], over 100 µM.

As for `N#C[C@H](Nc1ccc2c(c1)CNC2)c1cc(Cl)cc(C2CC2)c1`, the IC50 is over 99.5 µM in assay [1] and over 100 µM in assay [2].

On to `NCC12CC(NC(=O)c3cc(Cl)cc(NC(=O)OCc4ccccc4)c3)(CCO1)C2`, for which the IC50 in assay [1] was over 99.5 µM; in assay [2], over 100 µM.

Turning to `Cc1ccc(S(=O)(=O)N2Cc3ccccc3C[C@@H](C(=O)Nc3cccc(CN)c3)C2)cc1`, the values for the IC50 in assay [1] and in assay [2] were 75.2 µM and over 100 µM, respectively.

Take `O=C(NCC(F)F)[C@H](Nc1ccc2c(c1)CNC2)c1cc(F)cc2[nH]ccc12`: the results for the IC50 in assay [1] and in assay [2] were over 99.5 µM and over 100 µM, respectively.

As to `CS(=O)(=O)N1CC[C@]2(C1)C(=O)Nc1cccc(C(=O)Nc3ccc4c(c3)CNC4)c12`, the IC50 is over 99.5 µM in assay [1] and over 100 µM in assay [2].

These data come from ChEMBL document CHEMBL5604063, “ASAP - DENV-2 NS2B-NS3 protease fluorescence dose response” (2024).
